Assay results as given in patent US8802597B2, “Herbicidal pyrimidines” (E I du Pont de Nemours and Company, priority 2003, dated 2014).
Like-named read-outs stand apart in the source and are kept apart here.

Assays:
Test in all cases: Test C pre/postemergence
Format in all cases: in vivo
[1] = tested on: crabgrass (Digitaria sanguinalis); details: for pest or weed control at 16 g/ha: 16 g ai/ha
Outline: (§1)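 Seeds sown and sprayed preemergence with test compound in non-phytotoxic solvent containing surfactant; postemergence sprays, same formulation, went onto plants 2 to 18 cm tall (1- to 4-leaf stage). Plants held in greenhouse 12 to 14 days, then visually rated against untreated controls on a 0–100 scale (0 no effect, 100 complete control).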

[2] = tested on: cocklebur (Xanthium strumarium); details: for Plant response rating, Cocklebur: Preemergence
Outline: as §1

kochia (Kochia scoparia) = details: for pest or weed control at 31 g/ha: 31 g ai/ha
Outline: as §1

soybean (Glycine max) = details: for Plant response rating, Soybean: Preemergence, scale 0 to 100, 0 no effect, 100 complete control
Outline: as §1

corn (Zea mays) = details: for Plant response rating, Corn: Preemergence
Outline: as §1

[3] = tested on: lambsquarters (Chenopodium album); details: for pest or weed control at 16 g/ha: 16 g ai/ha; for pest or weed control at 62 g/ha: 62 g ai/ha
Outline: as §1

[4] = tested on: common (oilseed) sunflower (Helianthus annuus); details: Preemergence, scale 0 to 100, 0 no effect, 100 complete control
Outline: as §1

[5] = tested on: morningglory (Ipomoea coccinea); details: for Plant response rating, Morningglory: Preemergence
Outline: as §1

[6] = tested on: eastern black nightshade (Solanum ptycanthum); details: Preemergence, scale 0 to 100, 0 no effect, 100 complete control
Outline: as §1

[7] = tested on: Surinam grass (Brachiaria decumbens); details: for pest or weed control at 16 g/ha: 16 g ai/ha
Outline: as §1

[8] = tested on: johnsongrass (Sorghum halepense); details: for pest or weed control at 16 g/ha: 16 g ai/ha
Outline: as §1

[9] = tested on: giant foxtail (Setaria faberii); details: for pest or weed control at 16 g/ha: 16 g ai/ha
Outline: as §1

[10] = Preemergence, 31 g ai/ha, scale 0 to 100, 0 no effect, 100 complete control
[11] = Preemergence, 62 g ai/ha, scale 0 to 100, 0 no effect, 100 complete control
[12] = Preemergence, 125 g ai/ha, scale 0 to 100
[13] = 16 g ai/ha, scale 0 to 100, 0 no effect, 100 complete control
[14] = 31 g ai/ha, scale 0 to 100, 0 no effect, 100 complete control
[15] = 62 g ai/ha, scale 0 to 100, 0 no effect, 100 complete control
[16] = Chenopodium album, post-emergence, Postemergence, read-out: Plant response rating (scale of 0 to 100), Lambsquarters
[17] = Chenopodium album, pre-emergence, Preemergence, scale 0 to 100, 0 no effect, 100 complete control, read-out: Plant response rating, Lambsquarters

In the case of `Nc1nc(C2CC2)nc(C(=O)O)c1Cl` [Compound 135, 6-amino-5-chloro-2-cyclopropyl-4-pyrimidinecarboxylic acid], the pest or weed control at 16 g/ha ([1]; Digitaria sanguinalis, post-emergence, Postemergence, read-out: Plant response rating (scale of 0 to 100), Crabgrass) is reported as 65%, the pest or weed control at 31 g/ha ([1]; Digitaria sanguinalis, post-emergence, Postemergence, 31 g ai/ha, read-out: Plant response rating (scale of 0 to 100), Crabgrass) is reported as 75% and the pest or weed control at 62 g/ha ([1]; Digitaria sanguinalis, post-emergence, Postemergence, 62 g ai/ha, read-out: Plant response rating (scale of 0 to 100), Crabgrass) is reported as 75%. For the same molecule, the pest or weed control at 125 g/ha ([1]; Digitaria sanguinalis, post-emergence, Postemergence, 125 g ai/ha, scale 0 to 100 (0 no effect, 100 complete control), read-out: Crabgrass plant response rating) was 75%, the pest or weed control at 16 g/ha ([1]; Digitaria sanguinalis, pre-emergence, Preemergence, scale 0 to 100, 0 no effect, 100 complete control, read-out: Plant response rating, Crabgrass) was 0% and the “Plant response rating, Crabgrass” value [1, 10] was 0. The “Plant response rating, Crabgrass” value [1, 11] was 0, the “Plant response rating, Crabgrass” value [1, 12] was 5 and the “Plant response rating, Cocklebur” value [2, 13] was 85. For the same molecule, the “Plant response rating, Cocklebur” value [2, 14] was 95, the “Plant response rating, Cocklebur” value [2, 15] was 95 and the “Plant response rating, Cocklebur” value ([2]; 125 g ai/ha, scale 0 to 100) was 100. For the same molecule, the pest or weed control at 16 g/ha ([2]; Xanthium strumarium, post-emergence, Postemergence, 16 g ai/ha, read-out: Plant response rating (scale of 0 to 100), Cocklebur) was 90%, the pest or weed control at 31 g/ha ([2]; Xanthium strumarium, post-emergence, Postemergence, 31 g ai/ha, read-out: Plant response rating (scale of 0 to 100), Cocklebur) was 100% and the pest or weed control at 125 g/ha ([2]; Xanthium strumarium, post-emergence, Postemergence, 125 g ai/ha, scale 0 to 100 (0 no effect, 100 complete control), read-out: Cocklebur plant response rating) was 100%. For the same molecule, the pest or weed control at 16 g/ha (kochia (Kochia scoparia); Bassia scoparia, post-emergence, Postemergence, 16 g ai/ha, read-out: Plant response rating (scale of 0 to 100), Kochia) was 75%, the pest or weed control at 31 g/ha (kochia (Kochia scoparia); Bassia scoparia, post-emergence, Postemergence, read-out: Plant response rating (scale of 0 to 100), Kochia) was 90% and the pest or weed control at 62 g/ha (kochia (Kochia scoparia); Bassia scoparia, post-emergence, Postemergence, 62 g ai/ha, read-out: Plant response rating (scale of 0 to 100), Kochia) was 90%. For the same molecule, the pest or weed control at 125 g/ha (kochia (Kochia scoparia); Bassia scoparia, post-emergence, Postemergence, 125 g ai/ha, scale 0 to 100 (0 no effect, 100 complete control), read-out: Kochia plant response rating) was 95%, the pest or weed control at 31 g/ha (kochia (Kochia scoparia); Bassia scoparia, pre-emergence, Preemergence, scale 0 to 100, 0 no effect, 100 complete control, read-out: Plant response rating, Kochia) was 75% and the “Plant response rating, Kochia” value (kochia (Kochia scoparia); Preemergence, 16 g ai/ha, scale 0 to 100, 0 no effect, 100 complete control) was 60. For the same molecule, the “Plant response rating, Kochia” value (kochia (Kochia scoparia); [11]) was 75, the “Plant response rating, Kochia” value (kochia (Kochia scoparia); [12]) was 100 and the plant injury at 16 g/ha (soybean (Glycine max); Glycine max, post-emergence, Postemergence, 16 g ai/ha, read-out: Plant response rating (scale of 0 to 100), Soybean) was 100%. The plant injury at 62 g/ha (soybean (Glycine max); Glycine max, post-emergence, Postemergence, 62 g ai/ha, read-out: Plant response rating (scale of 0 to 100), Soybean) was 100%, the plant injury at 125 g/ha (soybean (Glycine max); Glycine max, post-emergence, Postemergence, 125 g ai/ha, scale 0 to 100 (0 no effect, 100 complete control), read-out: Soybean plant response rating) was 100% and the “Plant response rating, Soybean” value (soybean (Glycine max); 16 g ai/ha) was 85. The “Plant response rating, Soybean” value (soybean (Glycine max); 31 g ai/ha) was 95, the “Plant response rating, Soybean” value (soybean (Glycine max); 62 g ai/ha) was 95 and the “Plant response rating, Corn” value (corn (Zea mays); [13]) was 5. For the same molecule, the “Plant response rating, Corn” value (corn (Zea mays); [14]) was 30, the “Plant response rating, Corn” value (corn (Zea mays); [15]) was 30 and the “Plant response rating, Corn” value (corn (Zea mays); 125 g ai/ha, scale 0 to 100) was 70. For the same molecule, the Corn plant response rating (crop injury, 0 = no effect, 100 = complete kill) at 16 g/ha (corn (Zea mays); Zea mays, post-emergence, Postemergence, 16 g ai/ha, read-out: Plant response rating (scale of 0 to 100), Corn) was 5%, the Corn plant response rating (crop injury, 0 = no effect, 100 = complete kill) at 31 g/ha (corn (Zea mays); Zea mays, post-emergence, Postemergence, 31 g ai/ha, read-out: Plant response rating (scale of 0 to 100), Corn) was 10% and the Corn plant response rating (crop injury, 0 = no effect, 100 = complete kill) at 62 g/ha (corn (Zea mays); Zea mays, post-emergence, Postemergence, 62 g ai/ha, read-out: Plant response rating (scale of 0 to 100), Corn) was 20%. The Corn plant response rating (crop injury, 0 = no effect, 100 = complete kill) at 125 g/ha (corn (Zea mays); Zea mays, post-emergence, Postemergence, 125 g ai/ha, scale 0 to 100 (0 no effect, 100 complete control), read-out: Corn plant response rating) was 35%, the pest or weed control at 16 g/ha [3, 16] was 60% and the pest or weed control at 31 g/ha ([3]; Chenopodium album, post-emergence, Postemergence, 31 g ai/ha, read-out: Plant response rating (scale of 0 to 100), Lambsquarters) was 90%. For the same molecule, the pest or weed control at 62 g/ha [3, 16] was 90%, the pest or weed control at 125 g/ha ([3]; Chenopodium album, post-emergence, Postemergence, 125 g ai/ha, scale 0 to 100 (0 no effect, 100 complete control), read-out: Lambsquarters plant response rating) was 95% and the pest or weed control at 16 g/ha [3, 17] was 0%. The pest or weed control at 62 g/ha [3, 17] was 70%, the “Plant response rating, Lambsquarters” value [3, 10] was 70 and the “Plant response rating, Lambsquarters” value [3, 12] was 90. For the same molecule, the “Plant response rating, Sunflower” value ([4]; 16 g ai/ha) was 65, the “Plant response rating, Sunflower” value ([4]; 31 g ai/ha) was 70 and the “Plant response rating, Sunflower” value ([4]; 62 g ai/ha) was 90. It also gave a pest or weed control at 16 g/ha ([5]; Ipomoea, post-emergence, Postemergence, 16 g ai/ha, read-out: Plant response rating (scale of 0 to 100), Morningglory) of 80%, a pest or weed control at 31 g/ha ([5]; Ipomoea, post-emergence, Postemergence, 31 g ai/ha, read-out: Plant response rating (scale of 0 to 100), Morningglory) of 90% and a pest or weed control at 62 g/ha ([5]; Ipomoea, post-emergence, Postemergence, 62 g ai/ha, read-out: Plant response rating (scale of 0 to 100), Morningglory) of 95%. For the same molecule, the pest or weed control at 125 g/ha ([5]; Ipomoea, post-emergence, Postemergence, 125 g ai/ha, scale 0 to 100 (0 no effect, 100 complete control), read-out: Morningglory plant response rating) was 95%, the “Plant response rating, Morningglory” value [5, 13] was 85 and the “Plant response rating, Morningglory” value [5, 14] was 90. The “Plant response rating, Morningglory” value [5, 15] was 90, the “Plant response rating, Morningglory” value ([5]; 125 g ai/ha, scale 0 to 100) was 100 and the “Plant response rating, Nightshade” value ([6]; 31 g ai/ha) was 30. The “Plant response rating, Nightshade” value ([6]; 62 g ai/ha) was 35, the “Plant response rating, Nightshade” value [6] was 50 and the pest or weed control at 16 g/ha ([6]; Solanum, pre-emergence, 16 g ai/ha, read-out: Plant response rating, Nightshade) was 0%. For the same molecule, the “Plant response rating, Surinam Grass” value [7, 10] was 0, the “Plant response rating, Surinam Grass” value [7, 11] was 0 and the pest or weed control at 125 g/ha ([7]; Urochloa decumbens, post-emergence, Postemergence, 125 g ai/ha, scale 0 to 100 (0 no effect, 100 complete control), read-out: Surinam Grass plant response rating) was 60%. It also gave a pest or weed control at 16 g/ha ([7]; Urochloa decumbens, post-emergence, Postemergence, read-out: Plant response rating (scale of 0 to 100), Surinam Grass) of 45%, a pest or weed control at 31 g/ha ([7]; Urochloa decumbens, post-emergence, Postemergence, 31 g ai/ha, read-out: Plant response rating (scale of 0 to 100), Surinam Grass) of 50% and a pest or weed control at 62 g/ha ([7]; Urochloa decumbens, post-emergence, Postemergence, 62 g ai/ha, read-out: Plant response rating (scale of 0 to 100), Surinam Grass) of 60%. The pest or weed control at 16 g/ha ([7]; Urochloa decumbens, pre-emergence, Preemergence, scale 0 to 100, 0 no effect, 100 complete control, read-out: Plant response rating, Surinam Grass) was 0%, the “Plant response rating, Johnsongrass” value [8, 10] was 0 and the “Plant response rating, Johnsongrass” value [8, 11] was 5. The “Plant response rating, Johnsongrass” value [8, 12] was 40, the pest or weed control at 16 g/ha ([8]; Sorghum halepense, post-emergence, Postemergence, read-out: Plant response rating (scale of 0 to 100), Johnsongrass) was 15% and the pest or weed control at 31 g/ha ([8]; Sorghum halepense, post-emergence, Postemergence, 31 g ai/ha, read-out: Plant response rating (scale of 0 to 100), Johnsongrass) was 35%. For the same molecule, the pest or weed control at 62 g/ha ([8]; Sorghum halepense, post-emergence, Postemergence, 62 g ai/ha, read-out: Plant response rating (scale of 0 to 100), Johnsongrass) was 65%, the pest or weed control at 125 g/ha ([8]; Sorghum halepense, post-emergence, Postemergence, 125 g ai/ha, scale 0 to 100 (0 no effect, 100 complete control), read-out: Johnsongrass plant response rating) was 70% and the pest or weed control at 16 g/ha ([8]; Sorghum halepense, pre-emergence, Preemergence, scale 0 to 100, 0 no effect, 100 complete control, read-out: Plant response rating, Johnsongrass) was 0%. The “Plant response rating, Foxtail, Giant” value [9, 10] was 0, the “Plant response rating, Foxtail, Giant” value [9, 11] was 0 and the “Plant response rating, Foxtail, Giant” value [9, 12] was 0. It also gave a pest or weed control at 125 g/ha ([9]; Setaria faberi, post-emergence, Postemergence, 125 g ai/ha, scale 0 to 100 (0 no effect, 100 complete control), read-out: Foxtail, Giant plant response rating) of 75%, a pest or weed control at 16 g/ha ([9]; Setaria faberi, post-emergence, Postemergence, read-out: Plant response rating (scale of 0 to 100), Foxtail, Giant) of 10% and a pest or weed control at 31 g/ha ([9]; Setaria faberi, post-emergence, Postemergence, 31 g ai/ha, read-out: Plant response rating (scale of 0 to 100), Foxtail, Giant) of 60%. For the same molecule, the pest or weed control at 62 g/ha ([9]; Setaria faberi, post-emergence, Postemergence, 62 g ai/ha, read-out: Plant response rating (scale of 0 to 100), Foxtail, Giant) was 65% and the pest or weed control at 16 g/ha ([9]; Setaria faberi, pre-emergence, Preemergence, scale 0 to 100, 0 no effect, 100 complete control, read-out: Plant response rating, Foxtail, Giant) was 0%.
